Data published in patent publication US20070160684A1, “Methods for increasing cancer cell chemosensitivity” (priority 2005, published 2007).

Experiments:
[1] = system: Pa-4 and Pa-4/HMGA2 cells; assay: MTT cell viability assay; type: cell-based; conditions: Dox 0-7 μM or irinotecan 0-50 μM
[2] = target: Ku80 (80-kDa subunit of the DNA-PK holoenzyme), endogenous in HeLa and HeLa/HMGA2 cells (UniProt P13010); assay: co-immunoprecipitation with anti-HA antibody from transiently transfected HeLa cells, Western for Ku80, quantitated and normalized
Sequence of Ku80 (80-kDa subunit of the DNA-PK holoenzyme), endogenous in HeLa and HeLa/HMGA2 cells (P13010 2-732 limits assumed): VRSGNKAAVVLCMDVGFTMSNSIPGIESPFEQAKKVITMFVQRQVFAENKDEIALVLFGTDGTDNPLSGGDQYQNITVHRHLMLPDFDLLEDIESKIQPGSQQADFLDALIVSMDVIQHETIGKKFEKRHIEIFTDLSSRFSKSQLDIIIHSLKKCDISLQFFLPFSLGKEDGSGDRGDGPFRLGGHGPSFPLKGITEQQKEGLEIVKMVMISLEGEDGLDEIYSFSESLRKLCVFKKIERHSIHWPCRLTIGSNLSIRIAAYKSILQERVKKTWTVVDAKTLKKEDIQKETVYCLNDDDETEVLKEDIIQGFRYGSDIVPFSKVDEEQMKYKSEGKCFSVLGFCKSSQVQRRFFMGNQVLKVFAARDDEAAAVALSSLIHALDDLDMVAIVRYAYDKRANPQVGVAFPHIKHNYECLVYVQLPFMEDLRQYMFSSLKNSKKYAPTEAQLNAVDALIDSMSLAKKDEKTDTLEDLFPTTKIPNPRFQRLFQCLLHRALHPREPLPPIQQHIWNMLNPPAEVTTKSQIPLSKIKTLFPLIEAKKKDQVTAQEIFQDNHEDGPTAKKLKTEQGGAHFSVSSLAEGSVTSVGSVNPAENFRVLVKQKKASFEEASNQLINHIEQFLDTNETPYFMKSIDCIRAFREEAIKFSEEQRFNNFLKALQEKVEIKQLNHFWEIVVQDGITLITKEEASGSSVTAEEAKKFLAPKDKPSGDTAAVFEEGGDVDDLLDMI

[3] = target: Ku80 (80-kDa subunit of the DNA-PK holoenzyme), endogenous in HeLa and HeLa/HMGA2 cells (UniProt P13010); assay: co-immunoprecipitation with anti-HA antibody from transiently transfected HeLa cells; reference set to 100%
[4] = system: HeLa and HeLa/HMGA2 cells; assay: MTT cell viability assay; type: cell-based; conditions: increasing concentrations, 72 hours
Text: HS578T, HCC1419, and CHO cells

Pa-4 cells = conditions: 4 mM caffeine 1 hour, then 1 μM Dox and 4 mM caffeine 48 hours
Pa-4/HMGA2 cells = assay: FACS analysis after caffeine and Dox (G2/M, sub-G1); type: cell-based
Experimental: Pa-4 and Pa-4/HMGA2 cells were seeded at 50-80% confluency in 35 mm dishes and serum starved overnight to synchronize cell cycle. […] Following treatment, cells were fixed in 70% ethanol overnight, stained with 20 μg/ml propidium iodide, and subjected to FACS analysis.
Apoptosis was quantified by assessing sub-G1 cell populations.

ATM = ATM (Homo sapiens, UniProt Q13315); conditions: reported (Veuger 2003; Willmore 2004); cited from earlier work
DNA-PK = DNA-PK (Homo sapiens, UniProt P78527); conditions: reported (Veuger 2003; Willmore 2004); cited from earlier work
H2AX phosphorylation = assay: Western analysis of H2AX phosphorylation in HS578T and HCC1419 cells; type: cell-based
Experimental: (§1) NU7026 (Calbiochem, San Diego, Calif.) was dissolved in DMSO at 5 mM and stored at −20° C. […] Cell lysates were removed and subjected to Western analyses using monoclonal anti-phospho-H2AX (Ser 139) antibodies. Control Western analyses were performed using monoclonal anti-actin antibodies.
Experiments were repeated using HS578T and HCC1419 cells treated with 2 μM rather than 1 μM Dox.

[5] = system: H2AX Ser139 phosphorylation; assay: Western analysis of H2AX phosphorylation in Pa-4 and Pa-4/HMGA2 cells; type: cell-based; conditions: 4 mM caffeine or 10 μM NU7026 1 hour, then with 1 μM Dox 2 hours
Experimental: To ascertain whether HMGA2 effects Dox-induced ATM signaling activation, phosphorylation of ATM Ser1981 and H2AX Ser139 was assayed in the presence and absence of Dox (2 μM in ATM assays, 1 μM in H2AX assays). At various timepoints after Dox treatment, cell lysates were removed and subjected to Western analyses using monoclonal anti-phospho-ATM antibodies (Ser1981), polyclonal anti-ATM antibodies (Santa Cruz Biotechnology, Santa Cruz, Calif.), monoclonal anti-phospho-H2AX antibodies ([…]) (Upstate Cell Signaling), or anti-H2AX antibodies. Control Western analyses were performed using monoclonal anti-actin antibodies. […] HeLa and HeLa/HMGA2 cells
as §1

ATR = ATR (Homo sapiens, UniProt Q13535); conditions: reported (Veuger 2003; Willmore 2004); cited from earlier work
Sequence of ATR (Q13535 whole entry): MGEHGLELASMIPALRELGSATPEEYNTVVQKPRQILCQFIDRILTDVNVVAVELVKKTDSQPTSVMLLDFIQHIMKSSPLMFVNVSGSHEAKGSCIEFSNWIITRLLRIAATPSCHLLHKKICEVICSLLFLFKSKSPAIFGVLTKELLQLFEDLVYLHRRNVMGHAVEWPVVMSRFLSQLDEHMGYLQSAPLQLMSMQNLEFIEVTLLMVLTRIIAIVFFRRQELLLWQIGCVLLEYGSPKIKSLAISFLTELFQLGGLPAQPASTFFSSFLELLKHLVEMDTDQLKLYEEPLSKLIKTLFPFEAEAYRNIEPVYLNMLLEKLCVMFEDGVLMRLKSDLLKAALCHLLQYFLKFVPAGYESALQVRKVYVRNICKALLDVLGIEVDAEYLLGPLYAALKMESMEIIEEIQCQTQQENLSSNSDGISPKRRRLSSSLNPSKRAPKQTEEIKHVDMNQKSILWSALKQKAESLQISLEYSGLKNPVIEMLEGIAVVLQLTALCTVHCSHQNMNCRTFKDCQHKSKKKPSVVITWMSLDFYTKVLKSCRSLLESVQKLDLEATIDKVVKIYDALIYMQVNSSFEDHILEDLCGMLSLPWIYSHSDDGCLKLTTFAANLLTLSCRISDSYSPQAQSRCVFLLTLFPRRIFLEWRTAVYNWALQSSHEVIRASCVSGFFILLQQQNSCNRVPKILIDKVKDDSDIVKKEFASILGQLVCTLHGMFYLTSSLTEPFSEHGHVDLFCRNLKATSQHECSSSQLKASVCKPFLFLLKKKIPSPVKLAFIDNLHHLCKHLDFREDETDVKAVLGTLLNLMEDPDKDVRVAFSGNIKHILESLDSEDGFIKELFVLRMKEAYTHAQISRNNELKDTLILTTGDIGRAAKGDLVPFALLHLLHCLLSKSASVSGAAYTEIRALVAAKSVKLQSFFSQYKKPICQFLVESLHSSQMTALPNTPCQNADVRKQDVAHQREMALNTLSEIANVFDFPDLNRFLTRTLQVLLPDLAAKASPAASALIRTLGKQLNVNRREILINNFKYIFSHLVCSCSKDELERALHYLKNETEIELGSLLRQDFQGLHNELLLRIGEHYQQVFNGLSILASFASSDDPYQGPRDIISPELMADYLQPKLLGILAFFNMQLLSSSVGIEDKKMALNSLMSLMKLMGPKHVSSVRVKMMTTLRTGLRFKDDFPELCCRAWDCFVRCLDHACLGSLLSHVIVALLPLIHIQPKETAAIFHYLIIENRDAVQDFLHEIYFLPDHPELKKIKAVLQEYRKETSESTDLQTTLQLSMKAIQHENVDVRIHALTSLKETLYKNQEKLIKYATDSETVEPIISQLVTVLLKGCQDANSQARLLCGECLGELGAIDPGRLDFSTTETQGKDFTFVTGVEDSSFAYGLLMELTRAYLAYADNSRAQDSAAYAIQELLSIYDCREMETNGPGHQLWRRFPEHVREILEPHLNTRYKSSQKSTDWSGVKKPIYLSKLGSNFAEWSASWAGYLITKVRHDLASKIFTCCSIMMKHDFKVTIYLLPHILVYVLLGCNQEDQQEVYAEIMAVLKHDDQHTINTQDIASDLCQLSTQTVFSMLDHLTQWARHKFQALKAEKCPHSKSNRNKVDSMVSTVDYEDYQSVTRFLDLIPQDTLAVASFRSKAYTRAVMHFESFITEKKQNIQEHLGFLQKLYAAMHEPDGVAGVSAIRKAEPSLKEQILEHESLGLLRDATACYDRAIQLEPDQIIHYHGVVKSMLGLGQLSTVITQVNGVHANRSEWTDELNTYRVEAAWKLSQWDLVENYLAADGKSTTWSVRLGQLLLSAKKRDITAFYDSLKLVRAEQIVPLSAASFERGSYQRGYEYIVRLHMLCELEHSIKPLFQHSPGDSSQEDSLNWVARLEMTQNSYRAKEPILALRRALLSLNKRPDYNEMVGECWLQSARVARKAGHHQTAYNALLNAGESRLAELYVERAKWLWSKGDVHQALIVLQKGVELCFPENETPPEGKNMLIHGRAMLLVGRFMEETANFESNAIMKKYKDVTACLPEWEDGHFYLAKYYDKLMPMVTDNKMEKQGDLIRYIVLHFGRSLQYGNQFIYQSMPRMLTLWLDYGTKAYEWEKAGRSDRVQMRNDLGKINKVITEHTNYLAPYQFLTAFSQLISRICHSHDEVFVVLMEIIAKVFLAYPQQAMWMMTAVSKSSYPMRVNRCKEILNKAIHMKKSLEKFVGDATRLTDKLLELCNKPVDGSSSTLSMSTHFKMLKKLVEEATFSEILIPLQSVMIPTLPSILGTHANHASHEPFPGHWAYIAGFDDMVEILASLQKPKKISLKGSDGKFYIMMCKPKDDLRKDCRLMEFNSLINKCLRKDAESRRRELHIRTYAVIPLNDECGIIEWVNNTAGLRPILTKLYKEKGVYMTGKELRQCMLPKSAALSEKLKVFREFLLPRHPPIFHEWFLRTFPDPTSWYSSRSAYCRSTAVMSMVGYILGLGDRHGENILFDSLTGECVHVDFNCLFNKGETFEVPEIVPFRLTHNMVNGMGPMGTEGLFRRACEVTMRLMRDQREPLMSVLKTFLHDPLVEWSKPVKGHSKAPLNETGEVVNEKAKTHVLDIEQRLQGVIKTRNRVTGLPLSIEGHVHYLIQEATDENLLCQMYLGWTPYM
Sequence of ATR (Q8WXE1 whole entry partner): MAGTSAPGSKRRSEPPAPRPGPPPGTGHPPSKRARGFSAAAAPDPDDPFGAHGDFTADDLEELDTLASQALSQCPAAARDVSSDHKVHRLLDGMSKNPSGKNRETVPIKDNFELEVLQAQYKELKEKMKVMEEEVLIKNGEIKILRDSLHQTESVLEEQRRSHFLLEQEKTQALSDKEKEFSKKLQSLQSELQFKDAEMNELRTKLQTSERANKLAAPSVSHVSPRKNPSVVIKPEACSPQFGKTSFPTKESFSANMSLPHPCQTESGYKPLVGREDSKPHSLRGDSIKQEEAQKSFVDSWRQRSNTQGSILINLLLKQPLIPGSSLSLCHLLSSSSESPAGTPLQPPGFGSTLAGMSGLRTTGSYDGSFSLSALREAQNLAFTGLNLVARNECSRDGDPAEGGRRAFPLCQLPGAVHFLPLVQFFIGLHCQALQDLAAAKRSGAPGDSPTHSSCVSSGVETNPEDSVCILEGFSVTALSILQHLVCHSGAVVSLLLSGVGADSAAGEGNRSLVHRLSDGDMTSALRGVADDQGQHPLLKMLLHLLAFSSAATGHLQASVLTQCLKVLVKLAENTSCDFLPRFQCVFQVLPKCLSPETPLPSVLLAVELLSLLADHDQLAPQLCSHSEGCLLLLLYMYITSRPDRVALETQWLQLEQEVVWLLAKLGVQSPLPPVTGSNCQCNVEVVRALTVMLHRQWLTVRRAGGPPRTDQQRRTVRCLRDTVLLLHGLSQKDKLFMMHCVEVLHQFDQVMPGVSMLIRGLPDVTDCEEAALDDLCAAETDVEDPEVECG

[6] = system: HeLa, HeLa/HMGA2, HeLa/HMGA2(2K/R) cells; assay: MTT cell viability assay; type: cell-based; conditions: stable expression in HeLa cells, 72 hours
Experimental: FIG. 14: Association of HMGA2-dependent chemosensitization with HMGA2 SUMOylation. HeLa, HeLa/HMGA2, HeLa/HMGA2(2K/R) cells were subjected to treatment with increasing concentrations of Dox (upper panel) or cisplatin (lower panel) for 72 hours, as indicated. Cell viabilities were assessed using MTT assays. * denotes p<0.05; ** denotes p<0.01.
HMGA2 is a SUMOylation target (Cao, X. and Ann, D. K., unpublished observation). To investigate whether SUMOylation is involved in HMGA2-mediated chemosensitization, an HMGA2 mutant was constructed that carried Lysine to Arginine (Lys→Arg) point mutations at residues 66 and 67. These residues correspond to the SUMOyalation site (FIG. 13). The construct (HMGA2(2K/R)) was generated using previously described HA-HMGA2/pcDNA3.1 (Zentner 2001) as a template in conjunction with GeneEditor™ in vitro Site-Directed Mutagenesis System (Promega) and the mutagenesis primer set forth in SEQ ID NO:14. Desired mutations were confirmed by DNA sequencing analyses.

HeLa cells = assay: MTT viability of Dox-treated HeLa cells transfected with HMGA2 constructs; type: cell-based; conditions: transient transfection, Dox for 72 hours
Experimental: FIG. 19: Correlation between HMGA2 binding of Ku80 and chemosensitization towards Dox. HeLa cells were transfected with individual HMGA2 wild type and engineered constructs and allowed to recover overnight prior to reseeding for cell viability assay. Cells were treated with Dox for 72 hours and followed by MTT assays. ** denotes p<0.01.
To elucidate the relevance of HMGA2 complex formation with Ku80/Ku70, the viability of Dox-treated HeLa cells transfected with HMGA2 or its engineered mutants was examined. […] The augmented resistance to Dox, relative to that of vector-transfected HeLa cells, by HMGA2(Δ83-109) and HMGA2(4P/A) mutants may be due to protein-protein interactions arising from the remaining portion of HMGA2.

Ku80 = target: T1, Ku80 (Homo sapiens, UniProt P13010); assay: Co-immunoprecipitation of HMGA2 constructs with Ku80 in transfected HeLa cells; type: cell-based; conditions: transient transfection of HeLa cells
T1 construct: Co-immunoprecipitation assays were performed following transient transfection of HeLa cells with these constructs; endogenous in cells; host or cells: HeLa, transiently transfected with HA-HMGA2 constructs
T1 sequence (P13010 2-732 limits assumed): as the sequence (P13010 2-732 limits assumed) above
T1 sequence (P12956 2-609 partner limits assumed): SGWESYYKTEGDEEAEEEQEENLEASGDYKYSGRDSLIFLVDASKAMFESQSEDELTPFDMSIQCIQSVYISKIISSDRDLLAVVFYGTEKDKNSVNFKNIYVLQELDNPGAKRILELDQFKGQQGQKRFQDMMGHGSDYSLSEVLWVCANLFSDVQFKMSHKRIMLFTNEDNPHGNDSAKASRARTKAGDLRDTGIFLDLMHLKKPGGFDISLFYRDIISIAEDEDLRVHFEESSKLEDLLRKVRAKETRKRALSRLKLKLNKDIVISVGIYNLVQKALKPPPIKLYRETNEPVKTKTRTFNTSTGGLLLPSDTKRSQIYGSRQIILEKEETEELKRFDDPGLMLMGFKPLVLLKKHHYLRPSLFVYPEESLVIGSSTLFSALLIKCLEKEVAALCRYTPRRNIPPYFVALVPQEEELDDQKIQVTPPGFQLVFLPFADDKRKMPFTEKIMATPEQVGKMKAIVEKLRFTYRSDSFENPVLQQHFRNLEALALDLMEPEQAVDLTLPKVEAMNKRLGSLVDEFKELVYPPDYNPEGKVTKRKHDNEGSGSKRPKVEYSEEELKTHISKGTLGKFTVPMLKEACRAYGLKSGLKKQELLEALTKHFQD
Text: FIG. 18: Role of protein-protein and protein-DNA interactions in the HMGA/Ku80/Ku70 interaction. Individual wild type and engineered HMGA2 expression constructs was transfected into HeLa cells. The transfected cells were allowed to recover overnight in fresh medium prior to immunoprecipitation with an anti-HA antibody. Quantitation was done with BioRad Quantity One volume report program. After normalization with transfection efficiency and the expression level of HMGA2 and its mutant, percentage of Ku80/HMGA2 interaction is calculated by designating immunoprecipitated Ku80 with wild type HMGA2 as 100%.
To determine whether HMGA2 directly interacts with either subunit of the DNA-PK complex to dysregulate DNA-PK activation, co-immunoprecipitation assays were conducted using an anti-Ku70 antibody in HeLa and HeLa/HMGA2 cells. Cells were lysed for one hour in RIPA buffer (PBS, 1% NP40, 0.5% sodium deoxycholate, 0.1% SDS) supplemented with PMSF, aprotinin, and sodium orthovanadate immediately before use. The cell lysates were centrifuged at 10,000 rpm for 10 minutes and supernatants were collected. Protein concentrations were determined using Bradford protein assay. […] Samples were then analyzed by Western analyses. […]

CCc1c2c(nc3ccc(OC(=O)N4CCC(N5CCCCC5)CC4)cc13)-c1cc3c(c(=O)n1C2)COC(=O)[C@]3(O)CC [irinotecan]
difference in decrease of viability between Pa-4/HMGA2 and Pa-4 cells ([1]; 72 hours): little difference observed between the two cell types
cell viability / growth inhibition ([1]; 72 hours after treatment): dose-dependent growth inhibition in both cell types

HA-HMGA2(Δ66-109) (from UniProt P52926 1-65)
decrease of the interaction with Ku80 against wild-type HMGA2 [2]: > 70%

HA-HMGA2 (HA-tagged wild-type high-mobility group A2 protein expressed from pcDNA3.1/HA-HMGA2 in HeLa cells) (from UniProt P52926 1-109)
percentage of Ku80/HMGA2 interaction [3]: 100%

HA-HMGA2(Δ83-109) (from UniProt P52926 1-82)
decrease of the interaction with Ku80 against wild-type HMGA2 [2]: > 50%

CC(=O)O[C@H]1C(=O)[C@@]2(C)[C@H]([C@H](OC(=O)c3ccccc3)[C@]3(O)C[C@H](OC(=O)[C@H](O)[C@@H](NC(=O)c4ccccc4)c4ccccc4)C(C)=C1C3(C)C)[C@]1(OC(C)=O)CO[C@@H]1C[C@@H]2O [Taxol]
Taxol-induced cell growth inhibition, HeLa versus HeLa/HMGA2 [4]: no substantial difference in the response to Taxol between HeLa and HeLa/HMGA2 cells

Cn1c(=O)c2c(ncn2C)n(C)c1=O [caffeine]
effect on Dox-induced G2/M arrest (Pa-4 cells): greatly reduced Dox-induced G2/M arrest
cell cycle distribution / cells in G2/M, single agent (Pa-4/HMGA2 cells; 4 mM caffeine or 1 μM Dox, 48 hours): decreased the number of cells in G2/M
apoptosis with both caffeine and Dox (Pa-4/HMGA2 cells; caffeine with Dox): apoptosis levels greater than those observed after treatment with caffeine or Dox alone

O=c1cc(N2CCOCC2)oc2c1ccc1ccccc12 [NU7026]
activity against ATM (ATM): inactive
selectivity for DNA-PK (DNA-PK): highly selective for DNA-PK
effect of pre-treatment on Dox-induced H2AX phosphorylation (H2AX phosphorylation; HCC1419 cells, 2 μM Dox): downregulated
effect of pre-treatment on H2AX phosphorylation (H2AX phosphorylation; HS578T cells, with or without 2 μM Dox): did not decrease H2AX phosphorylation in either the presence or absence of Dox treatment
effect of pre-treatment on basal or Dox-induced H2AX phosphorylation ([5]; Pa-4/HMGA2 cells): little or no effect
effect of pre-treatment on Dox-induced H2AX phosphorylation ([5]; Pa-4 cells): attenuated
activity against ATR (ATR): inactive

B1: HMGA2(2K/R): SUMOylation-defective HMGA2 mutant with Lys→Arg point mutations at residues 66 and 67 (protein, UniProt P52926 2-109, looked up, variant K66R K67R)
High mobility group protein …: SARGEGAGQPSTSAQGQPAAPAPQKRGRGRPRKQQQEPTGEPSPKRPRGRPKGSKNKSPSKAAQRRAEATGEKRPRGRPRKWPQQVVQKKPAQEETEETSSQESAEED
effect on cytotoxicity elicited by Dox [6]: partially reversed the cytotoxicity
effect on cytotoxicity elicited by cisplatin [6]: partially reversed the cytotoxicity

B2: HMGA2(4P/A): HMGA2 mutant with four Pro→Ala mutations at amino acid positions 48, 52, 76, and 80 (protein)
chain: MSARGEGAGQPSTSAQGQPAAPAPQKRGRGRPRKQQQEPTGEPSPKRARGRAKGSKNKSPSKAAQKKAEATGEKRARGRARKWPQQVVQKKPAQEETEETSSQESAEED
modifications: left off: small tags and cut ends
sensitivity of transfected HeLa cells to Dox (HeLa cells): relatively greater resistance to Dox-treatment
ability to interact with Ku80 (Ku80): almost completely abrogated the binding of HMGA2 to Ku80

B3: HMGA2(Δ83-109): truncated HMGA2 carrying deletion of the C-terminus (protein, UniProt P52926 1-82, looked up, fragment)
chain: MSARGEGAGQPSTSAQGQPAAPAPQKRGRGRPRKQQQEPTGEPSPKRPRGRPKGSKNKSPSKAAQKKAEATGEKRPRGRPRK
modifications: HA tag
notes: truncated HMGA2 carrying deletion of the C-terminus
sensitivity of transfected HeLa cells to Dox (HeLa cells): relatively greater resistance to Dox-treatment

B4: HMGA2(Δ1-24): truncated HMGA2 carrying deletion of the N-terminus (protein, UniProt P52926 25-109, looked up, fragment)
chain: QKRGRGRPRKQQQEPTGEPSPKRPRGRPKGSKNKSPSKAAQKKAEATGEKRPRGRPRKWPQQVVQKKPAQEETEETSSQESAEED
modifications: HA tag
notes: truncated HMGA2 carrying deletion of the N-terminus
sensitivity of transfected HeLa cells to Dox (HeLa cells): enhanced the sensitivity of HeLa cells to Dox
ability to interact with Ku80 (Ku80): retained the full ability to interact with Ku80
